Measurements published in ChEMBL document CHEMBL1201862, “PubChem BioAssay data set” (2004).
Activity calls are given as the source filed them.

Tested on: BJ
Assay: cells
Type: functional, cell-based
Settings: Homo sapiens

SMILES | EC50
Cc1nc(NC(=O)CCl)sc1C(=O)N(C)C | > 150 µM (not active)
O=C(O)c1ccccc1C(=O)c1ccc(N2CCOCC2)c([N+](=O)[O-])c1 | > 150 µM (not active)
O=C(CSc1ncnc2sc3c(c12)CCCC3)N1CCC(c2noc3ccc(F)cc23)CC1 | > 150 µM (not active)
CCCN1C(=O)/C(=C\C=C2/Sc3ccccc3N2CC)SC1=S | > 150 µM (not active)

Tested on: not listed separately
Assay: inhibitors of intracellular T. cruzi replication, confirmation, NIH3T3 host cells, beta-gal luminescence (AID 2044);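 note: intracellular parasites grown in NIH/3T3 mouse fibroblasts as host cells; luminescent beta-galactosidase reporter signal from transgenic T. cruzi replicating inside host cells; inhibitors lower the luminescence signal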
Type: functional, cell-based
Settings: not given

SMILES | EC50
Fc1ccc(Sc2ccccc2CNC2=NCCN2)cc1 | 1.49 µM (active)

Tested on: Streptococcus
Assay: Group A Streptococcus viability loss, dose response, counter-screen for streptokinase expression inhibitor project, luminescence, BacTiterGlo (AID 1915);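 note: potency for reduction of bacterial viability or growth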
Type: functional, organism-based
Settings: not given

SMILES | EC50
COc1ccc(Br)cc1/C=C/C(=O)NC(=S)Nc1ccc(Cl)c(C(=O)O)c1 | 5.98 µM (active)

Target: Glucose-6-phosphate 1-dehydrogenase (Homo sapiens, UniProt P11413)
Sequence (P11413 whole entry): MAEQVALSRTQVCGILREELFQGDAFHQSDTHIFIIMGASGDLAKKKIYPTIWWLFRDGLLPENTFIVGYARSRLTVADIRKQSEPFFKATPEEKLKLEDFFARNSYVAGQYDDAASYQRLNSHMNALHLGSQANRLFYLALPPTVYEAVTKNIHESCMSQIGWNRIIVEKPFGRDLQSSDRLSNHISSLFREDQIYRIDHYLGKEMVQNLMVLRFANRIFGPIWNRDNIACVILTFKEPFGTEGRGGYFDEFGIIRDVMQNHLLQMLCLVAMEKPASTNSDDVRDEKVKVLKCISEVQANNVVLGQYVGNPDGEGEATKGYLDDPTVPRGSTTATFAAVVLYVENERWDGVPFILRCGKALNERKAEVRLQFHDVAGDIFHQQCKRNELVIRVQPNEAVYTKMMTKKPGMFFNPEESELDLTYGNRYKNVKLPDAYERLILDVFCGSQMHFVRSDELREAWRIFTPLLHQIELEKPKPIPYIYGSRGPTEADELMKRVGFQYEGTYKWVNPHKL
Assay: human G6PD enzyme inhibitors, dose response, selectivity assay for P. falciparum G6PD inhibitor project, biochemical, fluorescence (AID 504792)
Type: functional
Settings: not given

SMILES | IC50
O=C(CNC(=O)c1cccs1)OCC(=O)c1ccc([N+](=O)[O-])cc1 | > 80 µM (inactive)
S=C(NN=Cc1ccccn1)N(Cc1ccccn1)Cc1ccccn1 | > 80 µM (inactive)

Tested on: BJ
Assay: cytotoxicity toward BJ-TERT-LT-ST fibroblasts, dose response, cell-based, RAS-independent, luminescence (AID 1935);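 note: BJ fibroblasts immortalized with TERT plus LT and ST oncogenes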
Type: functional
Settings: Homo sapiens

SMILES | EC50
Cc1nc(NC(=O)CCl)sc1C(=O)N(C)C | > 150 µM (not active)
O=C(O)c1ccccc1C(=O)c1ccc(N2CCOCC2)c([N+](=O)[O-])c1 | > 150 µM (not active)
O=C(CSc1ncnc2sc3c(c12)CCCC3)N1CCC(c2noc3ccc(F)cc23)CC1 | > 150 µM (not active)
CCCN1C(=O)/C(=C\C=C2/Sc3ccccc3N2CC)SC1=S | > 150 µM (inconclusive)

Target: T1, Microphthalmia-associated transcription factor (Homo sapiens, UniProt O75030)
T1 sequence (O75030 whole entry): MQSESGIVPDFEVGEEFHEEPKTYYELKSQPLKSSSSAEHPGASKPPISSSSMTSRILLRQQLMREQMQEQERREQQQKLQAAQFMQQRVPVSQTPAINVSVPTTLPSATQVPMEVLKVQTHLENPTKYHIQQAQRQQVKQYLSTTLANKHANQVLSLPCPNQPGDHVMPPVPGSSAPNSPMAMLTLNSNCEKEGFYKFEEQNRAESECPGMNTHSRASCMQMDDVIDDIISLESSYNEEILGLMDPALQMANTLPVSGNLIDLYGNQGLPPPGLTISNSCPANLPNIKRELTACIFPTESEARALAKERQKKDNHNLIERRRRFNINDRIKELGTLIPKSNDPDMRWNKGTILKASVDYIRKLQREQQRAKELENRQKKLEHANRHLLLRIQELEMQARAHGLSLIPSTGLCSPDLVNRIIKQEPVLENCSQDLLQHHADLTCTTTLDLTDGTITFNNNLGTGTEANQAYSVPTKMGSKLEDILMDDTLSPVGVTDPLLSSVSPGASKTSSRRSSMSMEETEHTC
Assay: TRPM1 promoter luciferase signal decrease, dose response, MITF inhibitor project, cell-based, SK-MEL-5, cherry-picked, set 3 (AID 493073);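 note: SK-MEL-5 melanoma cells with luciferase driven by the MITF target TRPM1 promoter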
Type: functional
Settings: not given

SMILES | AC50
CC(C)(C)C(=O)Cn1ncc(Cl)c(Cl)c1=O | 10.4 µM (active)

Tested on: Streptococcus sp. 'group A'
Assay: growth inhibition of control SK(-) GAS strain, dose response, counter-screen for streptokinase expression inhibitor project, luminescence, kanamycin, BacTiterGlo, confirmation (AID 1900)
Type: functional, organism-based
Settings: not given

SMILES | EC50
COc1ccc(Br)cc1/C=C/C(=O)NC(=S)Nc1ccc(Cl)c(C(=O)O)c1 | 56.5 µM (active)

Target: Nonstructural protein 1 (Influenza A virus, UniProt Q194T2)
Sequence (Q194T2 whole entry): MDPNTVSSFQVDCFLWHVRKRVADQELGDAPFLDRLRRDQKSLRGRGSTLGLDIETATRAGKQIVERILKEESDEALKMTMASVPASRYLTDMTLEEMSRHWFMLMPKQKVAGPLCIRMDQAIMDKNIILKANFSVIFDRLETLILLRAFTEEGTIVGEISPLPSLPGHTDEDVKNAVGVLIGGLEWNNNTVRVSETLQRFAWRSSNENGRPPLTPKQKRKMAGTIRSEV
Assay: not given
Type: functional, Influenza A virus (A/California/07/2009(H1N1))
Settings: not given

SMILES | IC50
COc1ccc(N2CCN(CCNC(=O)Nc3ccc([N+](=O)[O-])cc3OC)CC2)cc1 | > 100 µM (active)
S=C(NN=Cc1ccccn1)N(Cc1ccccn1)Cc1ccccn1 | 1.59 µM (active)

Target: T2, Polyadenylate-binding protein 1 (Homo sapiens, UniProt P11940)
T2 sequence (P11940 whole entry): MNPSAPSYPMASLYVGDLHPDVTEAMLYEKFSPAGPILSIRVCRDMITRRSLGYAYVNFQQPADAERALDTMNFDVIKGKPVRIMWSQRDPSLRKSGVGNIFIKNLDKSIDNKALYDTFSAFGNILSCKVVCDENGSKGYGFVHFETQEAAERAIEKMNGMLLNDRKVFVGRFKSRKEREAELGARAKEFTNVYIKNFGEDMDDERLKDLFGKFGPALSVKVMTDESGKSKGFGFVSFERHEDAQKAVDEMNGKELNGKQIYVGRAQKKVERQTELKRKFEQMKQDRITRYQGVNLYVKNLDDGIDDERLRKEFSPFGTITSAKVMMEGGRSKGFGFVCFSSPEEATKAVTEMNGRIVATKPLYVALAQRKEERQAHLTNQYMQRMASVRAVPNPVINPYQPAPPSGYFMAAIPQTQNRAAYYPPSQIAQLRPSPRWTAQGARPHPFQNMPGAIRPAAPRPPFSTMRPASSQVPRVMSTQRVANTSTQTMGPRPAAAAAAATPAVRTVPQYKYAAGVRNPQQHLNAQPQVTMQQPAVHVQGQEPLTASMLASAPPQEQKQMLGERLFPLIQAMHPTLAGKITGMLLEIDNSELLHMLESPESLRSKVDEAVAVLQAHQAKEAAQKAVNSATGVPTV
Assay: PABP1 MLLE–PAM2 interaction inhibitors, dose response, miRNA deadenylation inhibitor project, biochemical, fluorescence polarization, Cy5-PAM2 peptide, secondary (AID 602260)
Type: functional
Settings: read-out: IC50_Mean

SMILES | IC50
COc1ccc(CC2C(=O)N(C)C(=O)N(C)C2=O)c(OC)c1 | > 66 µM (inactive)
COCCN1CN(S(=O)(=O)c2ccccc2)c2nc3ccccc3nc21 | > 66 µM (inactive)
CCCCC1=CC2=CC(=O)C(C)(OC(=O)CC)C(=O)C2=CN1CCCCO (stereo not drawn) | > 66 µM (inactive)
CC(=O)c1cccc(NC(=S)NC(=O)c2ccc(Br)cc2)c1 | > 66 µM (inactive)
N#CCCN(C(=S)NC(=O)c1ccco1)c1ccccc1F | > 66 µM (inactive)
ON=CN=C(S)Nc1ncc(C(F)(F)F)cc1Cl | > 66 µM (inactive)

Tested on: not listed separately
Assay: cytotoxicity toward DRD oncogenic fibroblasts, dose response, cell-based, non-viral oncogenic, luminescence (AID 1934)
Type: functional
Settings: Homo sapiens

SMILES | EC50
Cc1nc(NC(=O)CCl)sc1C(=O)N(C)C | 28.3 µM (active)
O=C(O)c1ccccc1C(=O)c1ccc(N2CCOCC2)c([N+](=O)[O-])c1 | > 150 µM (not active)
O=C(CSc1ncnc2sc3c(c12)CCCC3)N1CCC(c2noc3ccc(F)cc23)CC1 | > 150 µM (not active)
CCCN1C(=O)/C(=C\C=C2/Sc3ccccc3N2CC)SC1=S | > 150 µM (not active)

Target: T3, Fatty acid synthase (Homo sapiens, UniProt P49327)
T3 sequence (P49327 whole entry, the tested form may be a part): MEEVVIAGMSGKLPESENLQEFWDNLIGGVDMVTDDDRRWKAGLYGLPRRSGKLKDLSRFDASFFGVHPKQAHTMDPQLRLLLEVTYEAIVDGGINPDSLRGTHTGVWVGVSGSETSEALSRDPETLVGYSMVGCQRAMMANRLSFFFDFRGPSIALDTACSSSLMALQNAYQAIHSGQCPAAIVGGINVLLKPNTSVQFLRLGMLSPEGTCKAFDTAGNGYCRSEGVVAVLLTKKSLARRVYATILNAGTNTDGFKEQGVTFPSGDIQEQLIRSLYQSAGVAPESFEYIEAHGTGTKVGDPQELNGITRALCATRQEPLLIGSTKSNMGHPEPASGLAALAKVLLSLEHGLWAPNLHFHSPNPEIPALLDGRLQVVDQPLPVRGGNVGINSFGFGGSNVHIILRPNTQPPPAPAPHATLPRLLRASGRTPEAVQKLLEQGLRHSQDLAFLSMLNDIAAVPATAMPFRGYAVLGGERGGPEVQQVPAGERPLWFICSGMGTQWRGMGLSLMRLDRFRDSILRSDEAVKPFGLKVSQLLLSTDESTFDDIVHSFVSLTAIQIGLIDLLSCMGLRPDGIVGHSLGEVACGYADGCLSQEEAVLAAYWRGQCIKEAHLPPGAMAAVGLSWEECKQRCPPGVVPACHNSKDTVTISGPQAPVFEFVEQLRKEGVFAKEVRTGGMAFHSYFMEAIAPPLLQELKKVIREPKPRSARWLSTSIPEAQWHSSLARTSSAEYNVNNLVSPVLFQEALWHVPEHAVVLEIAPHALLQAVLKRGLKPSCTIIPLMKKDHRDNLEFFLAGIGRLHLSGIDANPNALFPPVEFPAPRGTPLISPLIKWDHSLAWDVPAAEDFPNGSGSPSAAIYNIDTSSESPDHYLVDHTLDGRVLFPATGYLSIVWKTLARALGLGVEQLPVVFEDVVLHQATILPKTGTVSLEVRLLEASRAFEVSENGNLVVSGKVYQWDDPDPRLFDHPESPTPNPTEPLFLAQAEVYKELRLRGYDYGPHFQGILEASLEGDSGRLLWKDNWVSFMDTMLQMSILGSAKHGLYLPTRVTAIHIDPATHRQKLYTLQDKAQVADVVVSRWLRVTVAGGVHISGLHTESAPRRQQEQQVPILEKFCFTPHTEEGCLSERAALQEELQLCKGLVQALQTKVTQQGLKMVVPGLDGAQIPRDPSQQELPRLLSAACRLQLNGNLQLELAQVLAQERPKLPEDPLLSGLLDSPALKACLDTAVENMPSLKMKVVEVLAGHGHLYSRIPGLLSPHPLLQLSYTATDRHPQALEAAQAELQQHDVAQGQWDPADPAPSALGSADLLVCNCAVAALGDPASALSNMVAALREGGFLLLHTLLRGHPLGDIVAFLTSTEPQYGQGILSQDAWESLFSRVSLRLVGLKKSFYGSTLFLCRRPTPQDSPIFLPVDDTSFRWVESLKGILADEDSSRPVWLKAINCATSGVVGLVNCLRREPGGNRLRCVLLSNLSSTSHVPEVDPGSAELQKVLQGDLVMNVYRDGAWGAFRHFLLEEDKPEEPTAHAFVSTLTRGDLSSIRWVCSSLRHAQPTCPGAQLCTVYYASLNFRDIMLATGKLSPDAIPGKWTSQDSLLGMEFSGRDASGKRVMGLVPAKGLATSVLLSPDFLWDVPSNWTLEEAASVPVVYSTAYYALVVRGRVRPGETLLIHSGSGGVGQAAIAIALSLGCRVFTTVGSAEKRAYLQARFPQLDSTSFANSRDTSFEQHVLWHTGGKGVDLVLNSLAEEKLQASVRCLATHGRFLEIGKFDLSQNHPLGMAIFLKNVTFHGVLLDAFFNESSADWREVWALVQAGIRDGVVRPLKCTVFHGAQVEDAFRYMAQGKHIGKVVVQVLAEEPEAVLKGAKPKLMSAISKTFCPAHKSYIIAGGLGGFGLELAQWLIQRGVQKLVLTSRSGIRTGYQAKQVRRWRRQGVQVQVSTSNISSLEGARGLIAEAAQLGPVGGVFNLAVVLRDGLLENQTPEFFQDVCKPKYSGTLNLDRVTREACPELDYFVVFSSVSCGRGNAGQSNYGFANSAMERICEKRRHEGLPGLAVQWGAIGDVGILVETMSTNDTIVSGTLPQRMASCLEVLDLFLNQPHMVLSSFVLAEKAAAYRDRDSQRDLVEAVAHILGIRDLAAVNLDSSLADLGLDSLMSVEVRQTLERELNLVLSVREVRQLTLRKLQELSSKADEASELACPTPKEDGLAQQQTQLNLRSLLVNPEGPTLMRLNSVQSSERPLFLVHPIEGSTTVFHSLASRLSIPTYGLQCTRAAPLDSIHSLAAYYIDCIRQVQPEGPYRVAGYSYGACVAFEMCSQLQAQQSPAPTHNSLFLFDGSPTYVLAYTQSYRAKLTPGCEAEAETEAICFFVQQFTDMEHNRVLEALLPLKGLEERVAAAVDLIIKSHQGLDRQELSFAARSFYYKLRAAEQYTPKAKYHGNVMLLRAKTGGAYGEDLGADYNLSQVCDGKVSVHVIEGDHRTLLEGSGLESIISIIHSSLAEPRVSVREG
Assay: FAS thioesterase domain inhibitors, dose response, biochemical, kinetic fluorescence intensity (AID 624326);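 note: rate of fluorescence rise from hydrolysis of a fluorogenic O-methyl fluorescein ester substrate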
Type: functional
Settings: not given

SMILES | IC50
CC(NC(=O)COC(=O)c1cc([N+](=O)[O-])ccc1N1CCOCC1)c1ccc(F)cc1 (stereo not drawn) | 1.48 µM (active)
CC(C)(C)c1ccc(C(=O)N/C(=C\c2cccc([N+](=O)[O-])c2)C(=O)Nc2cccc(C(=O)O)c2)cc1 | 1.48 µM (active)
O=C(COC(=O)CCc1ccccc1)Nc1cc([N+](=O)[O-])ccc1F | 6.27 µM (active)

Tested on: not listed separately
Assay: control 3'UTR Renilla luciferase suppression, dose response, counter-screen for Shn3 inhibitor project, cell-based, Clone20-Shn3RL, cherry-picked (AID 624133)
Type: functional
Settings: not given

SMILES | AC50
CCOC(=O)c1sc(NC(=O)CCCn2nc([N+](=O)[O-])c(Cl)c2C)c(C(=O)OCC)c1C | 15.4 µM (active)

Target: T4, Heat shock factor protein 1 (Mus musculus, UniProt P38532)
T4 sequence (P38532 whole entry): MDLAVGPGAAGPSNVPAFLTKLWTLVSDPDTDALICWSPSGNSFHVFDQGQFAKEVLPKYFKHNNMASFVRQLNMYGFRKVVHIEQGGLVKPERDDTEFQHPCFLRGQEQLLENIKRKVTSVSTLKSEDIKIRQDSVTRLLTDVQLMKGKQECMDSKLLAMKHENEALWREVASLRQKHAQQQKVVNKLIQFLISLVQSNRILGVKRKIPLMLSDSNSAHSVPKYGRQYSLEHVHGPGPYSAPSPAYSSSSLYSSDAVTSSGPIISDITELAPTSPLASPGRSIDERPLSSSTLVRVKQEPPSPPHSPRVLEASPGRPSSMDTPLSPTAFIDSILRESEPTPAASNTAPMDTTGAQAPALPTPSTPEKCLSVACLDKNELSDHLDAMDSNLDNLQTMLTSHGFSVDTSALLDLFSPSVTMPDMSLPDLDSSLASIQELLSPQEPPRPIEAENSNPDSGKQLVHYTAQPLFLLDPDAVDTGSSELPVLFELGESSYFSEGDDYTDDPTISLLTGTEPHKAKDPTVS
Assay: HSF1 potentiators in luciferase reporter cells, confirmation, cell-based, NIH3T3, luminescence, dose retest (AID 435004);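 note: stress induced by proteasome inhibitor MG132 added 30 min after compound; luciferase reporter driven by HSF1 response element in NIH3T3 cells; actives raise luminescence as potentiators of the MG132 stress response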
Type: functional
Settings: not given

SMILES | EC50
Fc1ccc(Sc2ccccc2CNC2=NCCN2)cc1 | > 260 µM (inactive)

Tested on: not listed separately
Assay: Shn3 3'UTR reporter inhibitors, dose response, cell-based, Clone20 osteoblasts, firefly luciferase, cherry-picked (AID 624132);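 note: firefly luciferase luminescence from reporter carrying the Shn3 3'UTR in osteoblasts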
Type: functional
Settings: not given

SMILES | AC50
CCOC(=O)c1sc(NC(=O)CCCn2nc([N+](=O)[O-])c(Cl)c2C)c(C(=O)OCC)c1C | 6.34 µM (active)

Target: FAD-linked sulfhydryl oxidase ALR (Homo sapiens, UniProt P55789)
Sequence (P55789 whole entry): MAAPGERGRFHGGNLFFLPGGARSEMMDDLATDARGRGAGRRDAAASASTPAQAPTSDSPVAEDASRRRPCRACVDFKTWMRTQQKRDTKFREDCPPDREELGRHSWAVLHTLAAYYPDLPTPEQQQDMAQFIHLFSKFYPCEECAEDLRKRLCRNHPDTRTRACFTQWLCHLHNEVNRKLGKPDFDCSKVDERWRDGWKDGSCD
Assay: inhibitors of human ALR sulfhydryl oxidase, dose response, biochemical, H2O2 detection, luminescence, cherry-pick (AID 493248)
Settings: not given

SMILES | AC50
COc1ccc(N2CCN(CCNC(=O)Nc3ccc([N+](=O)[O-])cc3OC)CC2)cc1 | 2.24 µM (active)

Target: T3, Fatty acid synthase
Assay: FAS thioesterase domain inhibitors, dose response, biochemical, endpoint fluorescence intensity, uHTS hits (AID 624327);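 note: fluorescence from hydrolysis of an O-methyl fluorescein acyl ester substrate by the enzyme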
Type: functional
Settings: not given

SMILES | IC50
CC(NC(=O)COC(=O)c1cc([N+](=O)[O-])ccc1N1CCOCC1)c1ccc(F)cc1 (stereo not drawn) | 1.95 µM (active)
CC(C)(C)c1ccc(C(=O)N/C(=C\c2cccc([N+](=O)[O-])c2)C(=O)Nc2cccc(C(=O)O)c2)cc1 | 2.44 µM (active)
O=C(COC(=O)CCc1ccccc1)Nc1cc([N+](=O)[O-])ccc1F | 5.19 µM (active)

Target: T2, Polyadenylate-binding protein 1
Assay: PABP1 MLLE–PAM2 binding inhibitor potency, dose response, biochemical, fluorescence polarization, FITC-PAM2 peptide (AID 602259)
Type: functional
Settings: read-out: IC50_Mean

SMILES | IC50
COc1ccc(CC2C(=O)N(C)C(=O)N(C)C2=O)c(OC)c1 | > 66 µM (inactive)
COCCN1CN(S(=O)(=O)c2ccccc2)c2nc3ccccc3nc21 | 55.4 µM (inactive)
CCCCC1=CC2=CC(=O)C(C)(OC(=O)CC)C(=O)C2=CN1CCCCO (stereo not drawn) | > 66 µM (inactive)
CC(=O)c1cccc(NC(=S)NC(=O)c2ccc(Br)cc2)c1 | > 66 µM (inactive)
N#CCCN(C(=S)NC(=O)c1ccco1)c1ccccc1F | > 66 µM (inactive)
ON=CN=C(S)Nc1ncc(C(F)(F)F)cc1Cl | > 66 µM (inactive)

Target: Genome polyprotein (dengue virus type 2, UniProt P29990)
Sequence (P29990 2492-3391 limits assumed): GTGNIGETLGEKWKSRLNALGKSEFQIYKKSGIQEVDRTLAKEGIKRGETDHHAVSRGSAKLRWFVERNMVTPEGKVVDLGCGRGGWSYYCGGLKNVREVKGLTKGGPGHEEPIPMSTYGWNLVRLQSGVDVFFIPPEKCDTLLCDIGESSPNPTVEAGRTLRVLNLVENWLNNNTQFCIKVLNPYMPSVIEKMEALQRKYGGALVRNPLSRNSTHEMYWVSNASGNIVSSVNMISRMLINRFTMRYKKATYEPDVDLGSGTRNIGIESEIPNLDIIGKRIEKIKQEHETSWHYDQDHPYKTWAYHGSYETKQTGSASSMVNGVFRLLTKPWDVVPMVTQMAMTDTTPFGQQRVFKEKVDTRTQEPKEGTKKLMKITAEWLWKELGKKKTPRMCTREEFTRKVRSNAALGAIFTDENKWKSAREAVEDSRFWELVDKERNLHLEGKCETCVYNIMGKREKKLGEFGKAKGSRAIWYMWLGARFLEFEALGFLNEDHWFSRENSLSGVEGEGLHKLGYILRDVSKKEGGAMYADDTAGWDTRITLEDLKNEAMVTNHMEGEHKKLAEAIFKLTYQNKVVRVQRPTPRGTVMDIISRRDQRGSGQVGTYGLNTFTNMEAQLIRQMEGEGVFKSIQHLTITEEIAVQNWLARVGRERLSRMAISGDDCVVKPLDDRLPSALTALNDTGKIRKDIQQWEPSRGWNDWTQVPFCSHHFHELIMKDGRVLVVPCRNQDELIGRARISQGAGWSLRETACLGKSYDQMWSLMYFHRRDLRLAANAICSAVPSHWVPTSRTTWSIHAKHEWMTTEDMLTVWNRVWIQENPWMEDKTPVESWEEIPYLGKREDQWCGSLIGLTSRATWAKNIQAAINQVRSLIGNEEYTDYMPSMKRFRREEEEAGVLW
Assay: Dengue-2 NS5 methyltransferase inhibitors, primary screen, biochemical, confirmation dose response (AID 588689)
Type: functional
Settings: not given

SMILES | IC50
COc1ccc(Br)cc1/C=C/C(=O)NC(=S)Nc1ccc(Cl)c(C(=O)O)c1 | 46.9 µM (active)

Tested on: BJ
Assay: cytotoxicity toward BJ-TERT fibroblasts, dose response, cell-based, RAS-independent, luminescence (AID 1933)
Type: functional
Settings: Homo sapiens

SMILES | EC50
Cc1nc(NC(=O)CCl)sc1C(=O)N(C)C | > 150 µM (not active)
O=C(O)c1ccccc1C(=O)c1ccc(N2CCOCC2)c([N+](=O)[O-])c1 | > 150 µM (not active)
O=C(CSc1ncnc2sc3c(c12)CCCC3)N1CCC(c2noc3ccc(F)cc23)CC1 | 30.7 µM (active)
CCCN1C(=O)/C(=C\C=C2/Sc3ccccc3N2CC)SC1=S | > 150 µM (not active)

Tested on: not listed separately
Assay: cytotoxicity toward NIH3T3 fibroblasts, dose response, counter-screen, cell-based, ATP luminescence, mouse fibroblasts (AID 2010);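 note: cells exposed to compound for about 90 hours before reading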
Type: functional
Settings: not given

SMILES | EC50
Fc1ccc(Sc2ccccc2CNC2=NCCN2)cc1 | > 60 µM (not active)
